From US8754057B2, “Inhibition of apoptosis-specific eIF-5A(eIF-5A1″) with antisense oligonucleotides and siRNA as anti-inflammatory therapeutics” (Senesco Technologies, Inc., priority 2003, dated 2014) come the findings set out here.

This data set deals with lamina cribrosa cell line #506. As to the kind of experiment: TUNEL labeling of siRNA-transfected LC cells treated with TNF-α and camptothecin. The class given is cell-based, human. The note with it: LC #506, TNF-α and camptothecin 24 h. As for the experimental part: Lamina cribrosa cell line #506 cells were seeded at 7500 cells per well onto an 8-well culture slide. Three days later the LC cells were transfected with either apoptosis-specific eIF-5A siRNA #1 (SEQ ID NO:30) or control siRNA #5 (SEQ ID NO:34). 72 hours after transfection, the transfected cells were treated with 10 ng/ml TNF-α plus 50 μM camptothecin. Twenty-four hours later the cells were stained with Hoescht 33258 and DNA fragmentation was evaluated in situ using the terminal deoxynucleotidyl transferase-mediated dUTP-digoxigenin nick end labeling (TUNEL) method. Panel A represents the slide observed by fluorescence microscopy using a fluorescein filter to visualize TUNEL-labeling of the fragmented DNA of apoptotic cells. Panel B represents the same slide observed by through a UV filter to visualize the Hoescht-stained nuclei. The results are representative of two independent experiments. All pictures were taken at 400 times magnification.
Transfected cells that had been treated with TNF-α and camptothecin for 24 hours were stained with Hoescht 33258 in order to determine the percentage of cells undergoing apoptosis. Briefly, cells were fixed with a 3:1 mixture of absolute methanol and glacial acetic acid and then incubated with Hoescht stain (0.5 μg/ml Hoescht 33258 in PBS). After a 10 minute incubation in the dark, the staining solution was discarded, the chambers separating the wells of the culture slide were removed, and the slide was washed 3 times for 1 minute with deionized water. After washing, a few drops of Mcllvaine's buffer (0.021 M citric acid, 0.058 M Na2HPO4.7H2O; pH 5.6) was added to the cells and overlaid with a coverslip. The stained cells were viewed under a fluorescent microscope using a UV filter. Cells with brightly stained or fragmented nuclei were scored as apoptotic. A minimum of 200 cells were counted per well. The DeadEnd™ Fluorometric TUNEL (Promega) was also used to detect the DNA fragmentation that is a characteristic feature of apoptotic cells. Following Hoescht staining, the culture slide was washed briefly with distilled water, and further washed by immersing the slide twice for 5 minutes in PBS (137 mM NaCl, 2.68 mM KCl, 1.47 mM KH2PO4, 8.1 mM Na2HPO4), blotting the slide on paper towel between washes. The cells were permeabilized by immersing them in 0.2% Triton X-100 in PBS for 5 minutes. The cells were then washed again by immersing the slide twice for 5 minutes in PBS and blotting the slide on paper towel between washes. 25 μl of equilibration buffer [200 mM potassium cacodylate (pH 6.6), 25 mM. Tris-HCl (pH 6.6), 0.2 mM dithiothreitol, 0.25 mg/ml bovine serum albumin, and 2.5 mM cobalt chloride] was added per well and incubated for 5 to 10 minutes. […] Any cells with brightly stained or fragmented nuclei were scored as apoptotic. […]

Turning to “siRNA #1: siRNA against human apoptosis-specific eIF-5A (SEQ ID NO:30); target 5′ AAAGGAATGACTTCCAGCTGA 3′ (SEQ ID NO: 81) (AAAGGAAUGACUUCCAGCUGATT; RNA, all phosphodiester, T or U not given here; listed as Homo sapiens)”, where the note is “3 days after transfection”, the “LC cells positive for TUNEL staining” value is 8%. Also, the “protection from apoptosis relative to the control siRNA” value (TUNEL) is recorded as “greater than 80%”.
